Assay results: patent US20260022126A1, “2-(L,8-DIETHYL-1,3,4,9-TETRAHYDROPYRANO[3,4-B]INDOL-1-YL)-N-(2-(PIPERIDIN-1 YL)ETHYL)ACETAMIDE ETODOLAC DERIVATIVE AS A EUKARYOTIC ELONGATION FACTOR 2 KINASE (EEF2K) INHIBITOR FOR TARGETED CANCER THERAPY” (BAHCESEHIR UNIVERSITESI, priority 2023, published 2026)

Assays:
eEF2K [1] = molecular target: T1, eEF2K (Homo sapiens, UniProt O00418); experiment: Western blot of p-EF2 (Thr56) for eEF2K inhibition in MDA-MB-231 cells; assay type: cell-based; details: for eEF2K inhibition potential: MDA-MB-231 (TNBC) cells, 2.5 to 20 micromolar
T1 sequence (O00418 1-725): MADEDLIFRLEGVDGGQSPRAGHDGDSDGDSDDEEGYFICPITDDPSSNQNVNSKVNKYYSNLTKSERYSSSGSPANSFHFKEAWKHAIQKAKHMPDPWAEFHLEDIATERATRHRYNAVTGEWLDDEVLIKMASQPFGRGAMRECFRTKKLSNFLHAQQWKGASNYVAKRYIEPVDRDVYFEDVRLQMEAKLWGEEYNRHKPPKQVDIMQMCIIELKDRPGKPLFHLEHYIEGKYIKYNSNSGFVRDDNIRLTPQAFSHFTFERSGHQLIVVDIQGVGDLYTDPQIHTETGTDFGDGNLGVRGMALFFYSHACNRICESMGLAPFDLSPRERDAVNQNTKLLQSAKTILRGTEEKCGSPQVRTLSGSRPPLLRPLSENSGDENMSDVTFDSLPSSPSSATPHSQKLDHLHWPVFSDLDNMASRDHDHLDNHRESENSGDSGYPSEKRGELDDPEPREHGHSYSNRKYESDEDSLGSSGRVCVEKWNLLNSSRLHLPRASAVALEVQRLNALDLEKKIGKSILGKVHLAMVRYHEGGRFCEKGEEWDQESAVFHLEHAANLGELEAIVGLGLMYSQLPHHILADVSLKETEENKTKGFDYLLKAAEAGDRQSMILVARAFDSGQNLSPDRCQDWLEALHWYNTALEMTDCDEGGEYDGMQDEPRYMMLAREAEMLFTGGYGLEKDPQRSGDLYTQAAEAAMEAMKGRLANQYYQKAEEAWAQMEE
Procedure: MeOH: distilled water by volume (%) (70:30) was used as the mobile phase for HPLC analysis for the inventive compound and the flow rate was set to 1 mL min^-1. Triple negative breast cancer (TNBC) cell lines (ER-, PR- and HER2-) MDA-MB-231 cells were purchased from the American Type Culture Collection (ATCC) (Manassas, VA, USA). MDA-MB-231 cells were cultured in Dulbecco's modified Eagle's medium (DMEM)/F12 supplemented with 10% FBS (Fetal Bovine Serum) and 100 U mL^-1 penicillin and streptomycin. Specific antibodies (p-EF2 (Thr56) (2331S), eEF2 (2332S), eEF2K (3692S) and GAPDH (5174S)) were purchased from Cell Signaling Technology (CST).
Western blot analysis was carried out according to previously reported studies to evaluate the eEF2K inhibition activity for the synthesized compounds. The synthesized compound was applied to MDA-MB-231 cells in the range of various concentrations from 2.5 to 20 micromolar for 2 h treatment. The expression levels of p-EF2 (Thr56) inhibition and eEF2K activity were determined by using related antibodies such as p-EF2 (Thr56), eEF2 and eEF2K. Glyceraldehyde 3-phosphate dehydrogenase (GAPDH) was used as a loading control.
To determine the effects of the synthesized compounds in inhibiting eEF2K activity in TNBC, MDA-MB-231 cells, we performed western blot analysis at concentrations ranging from 2.5 micromolar to 20 micromolar in a dose-dependent manner. eEF2K inhibition was detected by decreased phosphorylation levels of EF2 (p-EF2-Thr-56), a direct downstream substrate of the enzyme.

eEF2K [2] = molecular target: T1, eEF2K; details: literature, cited from earlier work
cancer cells = details: literature; very high doses; cited from earlier work
other protein kinases = details: literature; cited from earlier work

CCc1cccc2c3c([nH]c12)C(CC)(CC(=O)NCCN1CCCCC1)OCC3 (stereo not shown) [Inventive compound, 2-(1,8-Diethyl-1,3,4,9-tetrahydropyrano[3,4-b]indol-1-yl)-N-(2-(piperidin-1-yl)ethyl)acetamide]
eEF2K inhibition potential (eEF2K [1]; western blot): high inhibition potential | phospho-eEF2 (Thr56) inhibition (eEF2K [1]; MDA-MB-231 cells, 2.5 and 5 micromolar, 2 h treatment): highest phospho-eEF2 (Thr56) inhibition | eEF2K inhibition (reduced levels of p-EF2) (eEF2K [1]; MDA-MB-231 cells, 2.5 micromolar, compared to etodolac (EC), western blot): marked inhibition of eEF2K

CCc1cccc2c3c([nH]c12)C(CC)(CC(=O)O)OCC3 (racemic) [Etodolac, (R,S)-2-[1,8-diethyl-1,3,4-tetrahydropyrano[3,4-b]indol-1-yl] acetic acid]
eEF2K inhibition potential (eEF2K [1]; western blot): did not show any inhibition potential

CCCCCCCCCCCCCCCCn1cc[n+](Cc2ccccc2)c1C.[I-] [NH125]
eEF2K inhibition (in words) (eEF2K [2]): does not inhibit EF2K but rather increases eEF2 phosphorylation

CCn1c(=O)c2cc(C(N)=O)c(N)nc2n(C2CC2)c1=O [A484954]
Dose showing inhibition effect in cancer cells (cancer cells): 75 µM

Cc1cc(C=C2C(=O)C=CC2=O)cc(C)c1O [TX1918]
eEF2K inhibition (in words) (eEF2K [2]): did not show significant eEF2K inhibition | Concentration reported to inhibit eEF2K (eEF2K [2]; concentrations as high as): 10 µM | Activity against other kinases (specificity) (other protein kinases): inhibitory activity against five different kinases

CC(=O)c1c(O)c(C)c(O)c(Cc2c(O)c3c(c(C(=O)/C=C/c4ccccc4)c2O)OC(C)(C)C=C3)c1O [rottlerin]
Activity against other kinases (specificity) (other protein kinases): inhibits various other protein kinases at concentrations lower than those required for inhibition of eEF2K
